In patent US20260226048A1, “MULTI-CYCLIC IRAK AND FLT3 INHIBITING COMPOUNDS AND USES THEREOF” (CHILDREN'S HOSPITAL MEDICAL CENTER, priority 2023, published 2026):
Changes are numbered by the printed parent chain. pKd: −log10 of the molar value.

Legend:
FLT3 D835Y = molecular target: T1, FLT3 D835Y (Homo sapiens, UniProt P36888, D835Y); assay: DiscoverX KINOMEscan competition binding assay, FLT3 D835Y; conditions: 11-point 3-fold dilution
T1 construct: purchased DiscoverX (KINOMEscan); host or cells: E. coli BL21-derived host (T7 phage) or HEK-293
T1 sequence (P36888 27-993 D835Y): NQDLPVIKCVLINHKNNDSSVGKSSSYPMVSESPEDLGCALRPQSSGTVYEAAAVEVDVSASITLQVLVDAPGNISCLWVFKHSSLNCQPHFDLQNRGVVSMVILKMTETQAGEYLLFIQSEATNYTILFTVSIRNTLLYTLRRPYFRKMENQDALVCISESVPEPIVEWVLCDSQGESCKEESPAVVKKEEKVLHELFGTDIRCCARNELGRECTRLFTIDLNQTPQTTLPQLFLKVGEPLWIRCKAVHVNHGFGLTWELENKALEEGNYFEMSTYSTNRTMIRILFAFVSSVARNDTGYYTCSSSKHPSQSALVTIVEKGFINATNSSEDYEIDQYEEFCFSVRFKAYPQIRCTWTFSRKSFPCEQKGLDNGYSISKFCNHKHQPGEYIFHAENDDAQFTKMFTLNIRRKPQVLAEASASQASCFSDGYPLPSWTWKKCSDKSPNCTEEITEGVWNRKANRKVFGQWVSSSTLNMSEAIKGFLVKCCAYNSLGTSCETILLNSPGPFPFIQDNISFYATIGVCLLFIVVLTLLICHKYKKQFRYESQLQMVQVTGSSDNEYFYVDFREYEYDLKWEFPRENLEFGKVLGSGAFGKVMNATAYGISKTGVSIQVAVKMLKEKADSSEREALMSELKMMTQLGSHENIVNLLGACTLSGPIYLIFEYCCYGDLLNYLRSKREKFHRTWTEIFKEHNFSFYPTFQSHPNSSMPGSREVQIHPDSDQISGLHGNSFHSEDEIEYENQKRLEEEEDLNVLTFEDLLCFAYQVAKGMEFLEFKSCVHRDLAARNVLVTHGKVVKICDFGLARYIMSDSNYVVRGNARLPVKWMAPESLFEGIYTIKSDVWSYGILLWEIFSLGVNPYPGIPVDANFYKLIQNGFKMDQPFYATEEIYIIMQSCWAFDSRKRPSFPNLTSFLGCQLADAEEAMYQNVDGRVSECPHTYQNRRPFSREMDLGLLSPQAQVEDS
Description: (§1) […]. […] As a result, the data report thermodynamic interaction affinities (Kd values), rather than IC50 values that are dependent on ATP concentrations. The assay uses a DNA-tagged version of the protein kinase, and an immobilized ligand bound to a solid support. Compounds that directly or indirectly prevent kinase binding to the immobilized ligand reduce the amount of kinase captured on the solid support, which is detected using an ultra-sensitive qPCR method. Affinity constants reported from the assay have been reported to be independent of the immobilized ligand used that is coupled to the solid support (See supplemental information in Fabian, M. A. et. al., (2005) Nat. Biotechnol. 23, 329-336; Wodicka, L. M. et. al., (2010) Chem. Biol. 17, 1241-1249.)
(§2) Kinase-tagged T7 phage strains were prepared in an E. coli host derived from the BL21 strain. E. coli were grown to log-phase and infected with T7 phage and incubated with shaking at 32° C. until lysis. The lysates were centrifuged and filtered to remove cell debris. The remaining kinases were produced in HEK-293 cells and subsequently tagged with DNA for qPCR detection. Streptavidin-coated magnetic beads were treated with biotinylated small molecule ligands for 30 minutes at room temperature to generate affinity resins for kinase assays. The liganded beads were blocked with excess biotin and washed with blocking buffer (SeaBlock (Pierce), 1% BSA, 0.05% Tween 20, 1 mM DTT) to remove unbound ligand and to reduce non-specific binding. […] Test compounds were prepared as 111× stocks in 100% DMSO. Kds were determined using an 11-point 3-fold compound dilution series with three DMSO control points. All compounds for Kd measurements are distributed by acoustic transfer (non-contact dispensing) in 100% DMSO. The compounds were then diluted directly into the assays such that the final concentration of DMSO was 0.9%. All reactions were performed in polypropylene 384-well plates. Each was a final volume of 0.02 mL. […] The kinase concentration in the eluates was measured by qPCR.
(§3) Binding constants (Kds) were calculated with a standard dose-response curve using the Hill equation. The Hill Slope was set to −1. Curves were fitted using a non-linear least square fit with the Levenberg-Marquardt algorithm.

FLT3 K663Q = molecular target: T2, FLT3 K663Q (Homo sapiens, UniProt P36888, K663Q); assay: DiscoverX KINOMEscan competition binding assay, FLT3 K663Q; conditions: 11-point 3-fold dilution
T2 construct: purchased DiscoverX (KINOMEscan); host or cells: E. coli BL21-derived host (T7 phage) or HEK-293
T2 sequence (P36888 27-993 K663Q): T1 sequence (P36888 27-993 D835Y) with K637Q, Y809D
Description: as §1, §2, §3

Row | SMILES | pKd (FLT3 D835Y) | pKd (FLT3 K663Q)
1 | COc1cc2ncc(-c3nc(N[C@H]4CNCC[C@@H]4F)ncc3F)n2nc1C1COC1 [Compound 92a, 5-fluoro-N-((3S,4S)-4-fluoropiperidin-3-yl)-4-(7-methoxy-6-(oxetan-3-yl)imidazo[1,2-b]pyridazin-3-yl)pyrimidin-2-amine] | > 9.77 | 9.31
2 | CC(C)(O)c1cn2c(-c3nc(N[C@H]4CNCC[C@@H]4F)ncc3F)cnc2cn1 [Compound 100a, 2-(3-(5-fluoro-2-(((3S,4S)-4-fluoropiperidin-3-yl)amino)pyrimidin-4-yl)imidazo[1,2-a]pyrazin-6-yl)propan-2-ol] | 8.62 | 7.52
3 | CC(C)(O)c1ccc2ncc(-c3nc(N[C@H]4CNCC[C@@H]4F)ncc3F)n2c1 [Compound 46a, 2-(3-(5-fluoro-2-(((3S,4S)-4-fluoropiperidin-3-yl)amino)pyrimidin-4-yl)imidazo[1,2-a]pyridin-6-yl)propan-2-ol] | 9.59 | 8.43
4 | COc1cc2ncc(-c3nc(N[C@H]4CNCC[C@@H]4F)ncc3F)n2nc1C1CC1 [Compound 1a, 4-(6-cyclopropyl-7-methoxyimidazo[1,2-b]pyridazin-3-yl)-5-fluoro-N-((3S,4S)-4-fluoropiperidin-3-yl)pyrimidin-2-amine] | 9.64 | 9.57
5 | FC(F)COc1cc2ncc(-c3ccnc(N[C@H]4CNCC[C@@H]4F)n3)n2nc1C1CC1 [Compound 4a, 4-(6-cyclopropyl-7-(2,2-difluoroethoxy)imidazo[1,2-b]pyridazin-3-yl)-N-((3 S,4S)-4-fluoropiperidin-3-yl)pyrimidin-2-amine] | 9.38 | 8.64
6 | COc1cc2ncc(-c3nc(N[C@H]4CNCC[C@@H]4F)ncc3F)n2nc1C(C)(C)O [Compound 45a, 2-(3-(5-fluoro-2-(((3S,4S)-4-fluoropiperidin-3-yl)amino)pyrimidin-4-yl)-7-methoxyimidazo[1,2-b]pyridazin-6-yl)propan-2-ol] | 9.70 | 8.46
7 | COc1cc2ncc(-c3nc(N[C@H]4CNCC[C@@H]4F)ncc3F)n2nc1N1CCCS1(=O)=O [Compound 112a, 2-(3-(5-fluoro-2-(((3S,4S)-4-fluoropiperidin-3-yl)amino)pyrimidin-4-yl)-7-methoxyimidazo[1,2-b]pyridazin-6-yl)isothiazolidine 1,1-dioxide] | > 9.77 | 9.51
